# Assay results from patent US6372943B1, “Polyenepolycarboxylic acids, derivatives thereof with respect to carboxyl groups, or salts of these” (Fujisawa Pharmaceutical Co., Ltd., priority 1998, dated 2002).
# Tests used:
# [1] = Sequestering ability against calcium ion under alkaline condition (pH13) (Example 17); type: physicochemical
# Description: First, a liquid for measurement was prepared in the following manner. Potassium oxalate (0.6 g) was dissolved in 0.1N sodium hydroxide (500 mL), and in the resulting solution (10 mL) was dissolved pentasodium salt of S1 compound (40) mg) or heptasodium salt of S2 compound (40 mg) to give the liquid for measurement. As a titrant was used 2.2% calcium acetate solution.
# The titrant was added dropwise to this liquid for measurement under stirring until the liquid for measurement became turbid by precipitation of calcium oxalate to determine the titer used A (mL). Another liquid for measurement not containing any one of the test samples was also measured in the same manner as above to determine the titer of blank B (mL). Based on the titers A and B, the sequestering ability against calcium ion was calculated according to the following formula. For comparison, an existing chelating agent (EDTA·4Na) was treated in the same manner as above to calculate its sequestering ability against calcium ion.
# Sequestering ability against calcium ion [Ca ion (mg)/test sample (1 g)]=(A−B)×(1 g/test sample amount precisely weighed)×5
# wherein the numeral “5” is the amount of Ca ion (5 mg) equivalent to 1 mL of the 2.2% calcium acetate solution.
# [2] = Dispersing activity, organic pigment in a non-aqueous system case 2, S0 anhydride in ethyl acetate (Example 15); details: supernatant 0.25 mL
# Description: (§1) Into a test tube (16×150 mm) was scaled and collected 0.5 mL of a suspension of copper phthalocyanine blue in ethyl acetate (40 mg/10 mL) under stirring with a point mixer, and ethyl acetate (4.5 mL) was further added thereto.
# (§2) To this suspension was added a solution of each of S1 and S2 anhydrides obtained in preparation example 1 in ethyl acetate (20 mg/2 mL), and ethyl acetate was further added thereto to give a total amount of 6 mL. This liquid was stirred with a point mixer for 15 seconds, treated with ultrasonic wave for 30 minutes, and then allowed to stand for 10 to 30 minutes. The resulting supernatant liquid (0.5 mL) was colle cted, admixed with ethyl acetate to give a total amount of 3 mL and then measured for absorbance at 660 wavelength. From the absorbance thus measured, the dispersibility was evaluated.
# S0 anhydride obtained in preparation example 11 was treated in the same manner as in example 14. The resulting supernatant liquid (0.25 mL) was collected, admixed with ethyl acetate to give a total amount of 3 mL, and then measured for absorbance. From the absorbance thus measured, the dispersing activity was evaluated.
# [3] = Dispersing activity, organic pigment in a non-aqueous system case 1, ethyl acetate (Example 14)
# Description: as §1, §2
# [4] = Dispersing activity, organic pigment in a non-aqueous system case 3, ethanol (Example 16); details: supernatant 0.25 mL
# Description: as §1, §2
# The same procedure as in example 14 except for the use of ethanol instead of ethyl acetate was performed. The amount of a supernatant liquid was 0.25 mL. From the absorbance thus measured, the dispersing activity was evaluated.
# [5] = Detergent activity against artificially soiled cloth, Launder-o-meter (Example 19); details: additive 0.25 g/L in basic washing liquid; 20° C., 10 minutes; ratio to washing liquid with no addition
# Description: A detergency test was conducted using a Launder-o-meter as a detergency tester by washing 15 pieces of artificially wet-soiled cloth (size: 5×5 cm, dirt composition: oleic acid 28.3%, triolein 15.6%, cholesterol oleate 12.2%, liquid paraffin 2.5%, squalene 2.5%, cholesterol 1.6%, gelatin 7.0%, soil matter 29.8% and carbon black 0.2-0.3%) available from SENTAKU KAGAKU KYOKAI (foundation) in a washing liquid (liquid temperature: 20° C.) of the composition shown in Table 25 for 10 minutes, followed by rinsing for three minutes.
# Judgment was done in the following manner. The reflectivity of each of the 15 pieces of artificially soiled cloth was measured before and after the test by means of a spectrocolorizeter, and from the mean value of the measured values the detergency was calculated according to the formula of Kubelka and Munk. The ratio of the detergency calculated of a sample to the detergency of a washing liquid with no addition was found as a detergency ratio.
# [6] = Dispersing activity, organic pigment in an aqueous system case 1, phthalocyanine green (Example 12); details: standing three hours
# Description: Into a test tube (16×150 mm) were placed a phthalocyanine green suspension (5 mL: phthalocyanine green 16 mg/distilled water 200 mL) and the filtrate (evaporated to dryness) obtained in culture example 1 in a predetermined amount, followed by stirring for 15 seconds with a point mixer. After the stirring, the resulting mixture liquid was allowed to stand for three hours, and then the diameter of phthalocyanine green deposited on the bottom of the test tube was measured to evaluate the dispersibility from the diameter measured. That is, a greater diameter measured is indicative of better dispersibility. For comparison, the same procedure was taken with commercially available naphthalenesulfonate or lignin sulfonate.
compound,measurement,setting,value
"O=C([O-])CN(CCN(CC(=O)[O-])CC(=O)[O-])CC(=O)[O-].[Na+].[Na+].[Na+].[Na+] [EDTA · 4Na, EDTA·4Na]","Sequestering ability against calcium ion, Ca ion",[1],92 mg/1 g of a test sample
CC/C=C/C1=C(CCC(=O)O)C(=O)OC1=O [S0 anhydride],Absorbance (660 nm),[2]; amount added 0.5 mg,0.84
same,Absorbance (660 nm),[2]; amount added 1.0 mg,0.89
CC/C=C/C1=C(CC(CC)CC2=C(CCC(=O)O)C(=O)OC2=O)C(=O)OC1=O (stereo not shown) [S1 anhydride],Absorbance (660 nm),[3]; amount added 2.5 mg,0.66
same,Absorbance (660 nm),[3]; amount added 5 mg,1.27
same,Absorbance (660 nm),[3]; amount added 10 mg,1.86
same,Absorbance (660 nm),[4]; amount added 0.25 mg,0.05
same,Absorbance (660 nm),[4]; amount added 0.50 mg,0.69
same,Absorbance (660 nm),[4]; amount added 1.00 mg,0.63
O=P(O)(O)OP(=O)(O)OP(=O)(O)O [Sodium tripolyphosphate],Detergency ratio,[5],1.38
O=C([O-])CC(O)(CC(=O)[O-])C(=O)[O-].[Na+].[Na+].[Na+] [Trisodium citrate],Detergency ratio,[5],1.38
naphthalenesulfonate,Diameter of phthalocyanine green deposited,[6]; 0.17 mg,4 mm
same,Diameter of phthalocyanine green deposited,[6]; 0.85 mg,5 mm
same,Diameter of phthalocyanine green deposited,[6]; 1.7 mg,6 mm
same,Diameter of phthalocyanine green deposited,[6]; 8.5 mg,6 mm
same,Diameter of phthalocyanine green deposited,[6]; 17 mg,6 mm
